According to patent US20250235455A1, “AQUEOUS TICAGRELOR SOLUTIONS, METHOD OF MANUFACTURING AND USES” (HYLORIS DEVELOPMENTS SA, priority 2022, published 2025):

Tests used:
Format in all cases: physicochemical
[1] = Dilution of a concentrated ticagrelor vial
Source text: However, this was not possible with a 0.9 w/v % NaCl solution as diluent for the concentrated ticagrelor solution.

[2] = Impact of buffer strength on pH, osmolality, assay and impurities
Procedure: In addition, a screening was conducted on the impact of buffer strength on pH and osmolality.

[3] = Stability of ticagrelor 6 mg/ml in HPβCD 40% w/w, buffer pH 4.5, 5.5, 6.5, stored at 40° C. and 75% RH (HPLC related substances)
Procedure: HPβCD was dissolved in a buffer solution of pH 4.5, 5.5 or 6.5 prepared separately in water. […] The ticagrelor in buffer solution was filtered through a 0.22 micron filtered and filled in USP Type I glass vials. The vials were stoppered and stored. All precautions were taken during manufacturing, such as N2 purging and avoiding direct exposure to light. The vials were stored at 40° C. and 75% Relative Humidity (RH).
To determine the stability of the formulations, batches were evaluated using a related substance method on HPLC.
A Gradient HPLC method was used to analyze impurities in formulations using a YMC-Pack Pro C18 column (100×4.6 mm, S-3 μm 12 nm). Good separation was obtained for all the impurities. • Amine impurity: (1S,2S,3R,5S)-3-(7-amino-5-(propylsulfanyl)-3H-[1,2,3]triazolo[4,5-d]pyrimidin-3-yl)-5-(2-hydroxyethoxy)cyclopentane-1,2-diol. This is a process related degradant impurity. • Regiomer impurity: (1S, 2S, 3R, 5S)-3-((3-((1R,2S)-2-(3,4-Difluorophenyl)cyclopropyl)-5-(propylsulfanyl)-3H-[1,2,3]triazolo[4,5-d]pyrimidin-7-yl)amino)-5-(2-hydroxyethoxy)cyclopentane-1,2-diol. This is a process related degradant impurity. • Acetal impurity: 2-[[(3aR,4S,6S,6aS)-6-[7-[1R,2S)-2-(3,4-difluorophenyl)-cyclopropyl]amino]-5-(propylsulfanyl)-3H-[1,2,3]triazolo-[4,5-d]pyrimidin-3-yl]-2,2-dimethyltetrahydro-2H-3aHcyclopenta[d][1,3]dioxol-4-yl]oxy]ethan-1-ol.

[4] = Clear aqueous ticagrelor-cyclodextrin solutions considering 65 mg dose; conditions: using 20-40% w/w HPβCD
[5] = Impact of ticagrelor particle size on dissolution
Source text: Two different particle size diameters for the ticagrelor active ingredient were screened, 5.5 and 15 micrometers. The pH and osmolality were not affected.

[6] = Phosphate buffer pH 7.5 strength 0.19 mM
[7] = Phosphate buffer pH 7.5 strength 5 mM
[8] = Phosphate buffer pH 7.5 strength 10 mM
[9] = Phosphate buffer pH 7.5 strength 19 mM
[10] = pH 4.5, T = 2 weeks, 40° C./75% RH
[11] = pH 4.5, T = 4 weeks, 40° C./75% RH
[12] = pH 5.5, T = 2 weeks, 40° C./75% RH
[13] = pH 5.5, T = 4 weeks, 40° C./75% RH
[14] = pH 6.5, T = 2 weeks, 40° C./75% RH
[15] = pH 6.5, T = 4 weeks, 40° C./75% RH

**Q.** What does the source list for `CCCSc1nc(N[C@@H]2C[C@H]2c2ccc(F)c(F)c2)c2nnn([C@@H]3C[C@H](OCCO)[C@@H](O)[C@H]3O)c2n1` [Ticagrelor, (1S,2S,3R,5S)-3-{7-[(1R,2S)-2-(3,4-difluorophenyl)cyclopropylamino]5-(propylthio)-3H-(1,2,3)triazolo (4,5-D)pyrimidin-3-yl}-5-(2 hydroxyethoxy)cyclopentane-1,2-diol]?
**A.** Clear solution on dilution ([1]; 0.9 w/v % NaCl solution as diluent): not possible; Appearance after dilution ([1]; 1 vial of 8 ml, 65 mg ticagrelor, about 3 g HPβCD, diluted with 25 ml 5 w/v % dextrose): clear solution; Osmolality sample ([2]; Phosphate buffer pH 7.5): 809 mOsm/kg; Assay [2, 6]: 102.23%; Total Impurities [2, 6]: 0.42%; pH sample [2, 6]: 7.18; Assay [2, 7]: 100.49%; Osmolality sample [2, 7]: 703 mOsm/kg; Total Impurities [2, 7]: 0.40%; pH sample [2, 7]: 7.66; Assay [2, 8]: 102.98%; Osmolality sample [2, 8]: 724 mOsm/kg; Total Impurities [2, 8]: 0.42%; pH sample [2, 8]: 7.69; Assay [2, 9]: 102.58%; Osmolality sample [2, 9]: 758 mOsm/kg; Total Impurities [2, 9]: 0.42%; pH sample [2, 9]: 7.70; Regiomer impurity level ([3]; 4 weeks 40° C. and 75% RH, specification limit 0.3%): ~0.3%; Acetal impurity content ([3]; pH 4.5, T = 0): 0.05%; Amine impurity content ([3]; pH 4.5, T = 0): 0.05%; Content of unnamed impurity, relative retention time 1.52 ([3]; pH 4.5, T = 0): 0.03%; Oxidative impurity 1 content ([3]; pH 4.5, T = 0): 0.00%; Oxidative impurity 2 content ([3]; pH 4.5, T = 0): 0.00%; Regiomer impurity content ([3]; pH 4.5, T = 0): 0.00%; Sum Impurities >0.05 ([3]; pH 4.5, T = 0): 0.22%; Total Impurities ([3]; pH 4.5, T = 0): 0.36%; Triol impurity content ([3]; pH 4.5, T = 0): 0.05%; Acetal impurity content [3, 10]: 0.06%; Amine impurity content [3, 10]: 0.05%; Content of unnamed impurity, relative retention time 1.52 [3, 10]: 0.04%; Oxidative impurity 1 content [3, 10]: 0.00%; Oxidative impurity 2 content [3, 10]: 0.00%; Regiomer impurity content [3, 10]: 0.00%; Sum Impurities >0.05 [3, 10]: 0.23%; Total Impurities [3, 10]: 0.40%; Triol impurity content [3, 10]: 0.05%; Acetal impurity content [3, 11]: 0.05%; Amine impurity content [3, 11]: 0.05%; Content of unnamed impurity, relative retention time 1.52 [3, 11]: 0.03%; Oxidative impurity 1 content [3, 11]: 0.01%; Oxidative impurity 2 content [3, 11]: 0.02%; Regiomer impurity content [3, 11]: 0.42%; Sum Impurities >0.05 [3, 11]: 0.63%; Total Impurities [3, 11]: 0.80%; Triol impurity content [3, 11]: 0.05%; Acetal impurity content ([3]; pH 5.5, T = 0): 0.05%; Amine impurity content ([3]; pH 5.5, T = 0): 0.04%; Content of unnamed impurity, relative retention time 1.52 ([3]; pH 5.5, T = 0): 0.02%; Oxidative impurity 1 content ([3]; pH 5.5, T = 0): 0.00%; Oxidative impurity 2 content ([3]; pH 5.5, T = 0): 0.00%; Regiomer impurity content ([3]; pH 5.5, T = 0): 0.00%; Sum Impurities >0.05 ([3]; pH 5.5, T = 0): 0.16%; Total Impurities ([3]; pH 5.5, T = 0): 0.33%; Triol impurity content ([3]; pH 5.5, T = 0): 0.05%; Acetal impurity content [3, 12]: 0.05%; Amine impurity content [3, 12]: 0.05%; Content of unnamed impurity, relative retention time 1.52 [3, 12]: 0.03%; Oxidative impurity 1 content [3, 12]: 0.00%; Oxidative impurity 2 content [3, 12]: 0.00%; Regiomer impurity content [3, 12]: 0.00%; Sum Impurities >0.05 [3, 12]: 0.21%; Total Impurities [3, 12]: 0.36%; Triol impurity content [3, 12]: 0.05%; Acetal impurity content [3, 13]: 0.05%; Amine impurity content [3, 13]: 0.04%; Content of unnamed impurity, relative retention time 1.52 [3, 13]: 0.02%; Oxidative impurity 1 content [3, 13]: 0.01%; Oxidative impurity 2 content [3, 13]: 0.02%; Regiomer impurity content [3, 13]: 0.30%; Sum Impurities >0.05 [3, 13]: 0.45%; Total Impurities [3, 13]: 0.65%; Triol impurity content [3, 13]: 0.05%; Acetal impurity content ([3]; pH 6.5, T = 0): 0.06%; Amine impurity content ([3]; pH 6.5, T = 0): 0.05%; Content of unnamed impurity, relative retention time 1.52 ([3]; pH 6.5, T = 0): 0.03%; Oxidative impurity 1 content ([3]; pH 6.5, T = 0): 0.00%; Oxidative impurity 2 content ([3]; pH 6.5, T = 0): 0.00%; Regiomer impurity content ([3]; pH 6.5, T = 0): 0.00%; Sum Impurities >0.05 ([3]; pH 6.5, T = 0): 0.22%; Total Impurities ([3]; pH 6.5, T = 0): 0.36%; Triol impurity content ([3]; pH 6.5, T = 0): 0.06%; Acetal impurity content [3, 14]: 0.06%; Amine impurity content [3, 14]: 0.05%; Content of unnamed impurity, relative retention time 1.52 [3, 14]: 0.04%; Oxidative impurity 1 content [3, 14]: 0.00%; Oxidative impurity 2 content [3, 14]: 0.00%; Regiomer impurity content [3, 14]: 0.00%; Sum Impurities >0.05 [3, 14]: 0.23%; Total Impurities [3, 14]: 0.41%; Triol impurity content [3, 14]: 0.06%; Acetal impurity content [3, 15]: 0.06%; Amine impurity content [3, 15]: 0.05%; Content of unnamed impurity, relative retention time 1.52 [3, 15]: 0.03%; Oxidative impurity 1 content [3, 15]: 0.00%; Oxidative impurity 2 content [3, 15]: 0.04%; Regiomer impurity content [3, 15]: 0.35%; Sum Impurities >0.05 [3, 15]: 0.56%; Total Impurities [3, 15]: 0.72%; Triol impurity content [3, 15]: 0.05%; Ticagrelor solution concentration achieved [4]: 5 to 13 mg/mL; Dissolution time ([5]; D90 5.5 μm, micronized): 33 min; Osmolality ([5]; D90 5.5 μm, micronized): 751 mOsm/kg; pH ([5]; D90 5.5 μm, micronized): 7.68; Dissolution time ([5]; D90 15 μm, unmicronized): 125 min; Osmolality ([5]; D90 15 μm, unmicronized): 753 mOsm/kg; pH ([5]; D90 15 μm, unmicronized): 7.70
